Measurements taken from PMC6979384, “Characterization of the plant homeodomain (PHD) reader family for their histone tail interactions” (Epigenetics & Chromatin, 2020).

Experiments:
Test in all cases: Histone peptide microarray
Assay type in all cases: binding, human
[1] = test system: AIRE (PP); conditions: GST-tagged AIRE (PP); sheet Array Heatmap; each array performed twice, total n = 4
Method in brief: (§1)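 Histone peptide library (293 synthetic peptides, single/combinatorial PTMs) arrayed and probed with 0.5 μM purified GST-PHD domain; optimized protocol; quadruplicate mean and SD reported.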

[2] = test system: BAZ2B; conditions: GST-tagged BAZ2B; sheet Array Heatmap; each array performed twice, total n = 4
Method in brief: as §1

[3] = test system: BPTF (PB); conditions: GST-tagged BPTF (PB = PHD + Bromodomain); sheet Array Heatmap; each array performed twice, total n = 4
Method in brief: as §1

[4] = test system: CHD4 (PPCC); conditions: GST-tagged CHD4 (PPCC = Dual PHD + Dual Chromodomain); sheet Array Heatmap; each array performed twice, total n = 4
Method in brief: as §1

[5] = test system: CHD5 (PCC); conditions: GST-tagged CHD5 (PCC = PHD + Dual Chromodomain); sheet Array Heatmap; each array performed twice, total n = 4
Method in brief: as §1

[6] = test system: CHD5 (PPCC); conditions: GST-tagged CHD5 (PPCC = Dual PHD + Dual Chromodomain); sheet Array Heatmap; each array performed twice, total n = 4
Method in brief: as §1

[7] = test system: DIDO1; conditions: GST-tagged DIDO1; sheet Array Heatmap; each array performed twice, total n = 4
Method in brief: as §1

[8] = test system: DPF2 (PPC2W2); conditions: GST-tagged DPF2 (PPC2W2 = Dual PHD + C2W2-type Zn-finger); sheet Array Heatmap; each array performed twice, total n = 4
Method in brief: as §1

[9] = test system: ING1; conditions: GST-tagged ING1; sheet Array Heatmap; each array performed twice, total n = 4
Method in brief: as §1

[10] = test system: ING2; conditions: GST-tagged ING2; sheet Array Heatmap; each array performed twice, total n = 4
Method in brief: as §1

[11] = test system: ING3; conditions: GST-tagged ING3; sheet Array Heatmap; each array performed twice, total n = 4
Method in brief: as §1

[12] = test system: ING4; conditions: GST-tagged ING4; sheet Array Heatmap; each array performed twice, total n = 4
Method in brief: as §1

[13] = test system: ING5; conditions: GST-tagged ING5; sheet Array Heatmap; each array performed twice, total n = 4
Method in brief: as §1

[14] = test system: KDM4C (TTP); conditions: GST-tagged KDM4C (TTP = Tandem Tudor domain + PHD); sheet Array Heatmap; each array performed twice, total n = 4
Method in brief: as §1

[15] = test system: KDM5A (1); conditions: GST-tagged KDM5A (1); sheet Array Heatmap; each array performed twice, total n = 4
Method in brief: as §1

[16] = test system: KDM5A (3); conditions: GST-tagged KDM5A (3); sheet Array Heatmap; each array performed twice, total n = 4
Method in brief: as §1

[17] = test system: KDM5B (1); conditions: GST-tagged KDM5B (1); sheet Array Heatmap; each array performed twice, total n = 4
Method in brief: as §1

[18] = test system: KDM5B (3); conditions: GST-tagged KDM5B (3); sheet Array Heatmap; each array performed twice, total n = 4
Method in brief: as §1

[19] = test system: KDM7A; conditions: GST-tagged KDM7A; sheet Array Heatmap; each array performed twice, total n = 4
Method in brief: as §1

[20] = test system: MLL5; conditions: GST-tagged MLL5; sheet Array Heatmap; each array performed twice, total n = 4
Method in brief: as §1

[21] = test system: MORC3 (CW); conditions: GST-tagged MORC3 (CW = CW-type Zn-finger); sheet Array Heatmap; each array performed twice, total n = 4
Method in brief: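 Purified PHD finger domains fused to GST are screened against 293 synthetic histone peptides bearing one or several post-translational modifications. The protein is used at 0.5 μM, and the signal from four replicate arrays is averaged, with standard deviation given.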

[22] = test system: PHF13; conditions: GST-tagged PHF13; sheet Array Heatmap; each array performed twice, total n = 4
Method in brief: as §1

[23] = test system: PHF21A; conditions: GST-tagged PHF21A; sheet Array Heatmap; each array performed twice, total n = 4
Method in brief: as §1

[24] = test system: PHF23; conditions: GST-tagged PHF23; sheet Array Heatmap; each array performed twice, total n = 4
Method in brief: as §1

[25] = test system: PHF2; conditions: GST-tagged PHF2; sheet Array Heatmap; each array performed twice, total n = 4
Method in brief: as §1

[26] = test system: PHF8; conditions: GST-tagged PHF8; sheet Array Heatmap; each array performed twice, total n = 4
Method in brief: as §1

[27] = test system: PHRF1 (RP); conditions: GST-tagged PHRF1 (RP); sheet Array Heatmap; each array performed twice, total n = 4
Method in brief: as §1

[28] = test system: RAG2; conditions: GST-tagged RAG2; sheet Array Heatmap; each array performed twice, total n = 4
Method in brief: as §1

[29] = test system: SP140L; conditions: GST-tagged SP140L; sheet Array Heatmap; each array performed twice, total n = 4
Method in brief: as §1

[30] = test system: TAF3; conditions: GST-tagged TAF3; sheet Array Heatmap; each array performed twice, total n = 4
Method in brief: as §1

[31] = test system: TRIM66 (PB); conditions: GST-tagged TRIM66 (PB = PHD + Bromodomain); sheet Array Heatmap; each array performed twice, total n = 4
Method in brief: as §1

Substance | Array Heatmap signal (histone peptide microarray) [1] | Array Heatmap signal (histone peptide microarray) [2] | Array Heatmap signal (histone peptide microarray) [3] | Array Heatmap signal (histone peptide microarray) [4] | Array Heatmap signal (histone peptide microarray) [5] | Array Heatmap signal (histone peptide microarray) [6] | Array Heatmap signal (histone peptide microarray) [7] | Array Heatmap signal (histone peptide microarray) [8] | Array Heatmap signal (histone peptide microarray) [9] | Array Heatmap signal (histone peptide microarray) [10] | Array Heatmap signal (histone peptide microarray) [11] | Array Heatmap signal (histone peptide microarray) [12] | Array Heatmap signal (histone peptide microarray) [13] | Array Heatmap signal (histone peptide microarray) [14] | Array Heatmap signal (histone peptide microarray) [15] | Array Heatmap signal (histone peptide microarray) [16] | Array Heatmap signal (histone peptide microarray) [17] | Array Heatmap signal (histone peptide microarray) [18] | Array Heatmap signal (histone peptide microarray) [19] | Array Heatmap signal (histone peptide microarray) [20] | further results
H3R2me2a + K4me3 + K9ac + S10p + K14ac + K18ac: H3 1-20 | 0.4047 | 0.4937 | 0.3887 | 0.6237 | 0.7925 | 0.548 | 0.8949 | 0.6777 | 0.5459 | 0.6564 | 0.4975 | 0.4604 | 0.3501 | 0.4723 | 0.4602 | 0.601 | 0.6513 | 0.4836 | 0.3601 | 0.625 | Array Heatmap signal (histone peptide microarray) [21]: 0.5411; Array Heatmap signal (histone peptide microarray) [22]: 0.6389; Array Heatmap signal (histone peptide microarray) [23]: 0.4526; Array Heatmap signal (histone peptide microarray) [24]: 0.5457; Array Heatmap signal (histone peptide microarray) [25]: 0.7095; Array Heatmap signal (histone peptide microarray) [26]: 0.4417; Array Heatmap signal (histone peptide microarray) [27]: 0.447; Array Heatmap signal (histone peptide microarray) [28]: 0.3777; Array Heatmap signal (histone peptide microarray) [29]: 0.3224; Array Heatmap signal (histone peptide microarray) [30]: 0.4085; Array Heatmap signal (histone peptide microarray) [31]: 0.5406
H3R2me2a + K4me3 + S10p: H3 1-20 | 0.4162 | 0.4437 | 0.396 | 0.5987 | 0.741 | 0.5451 | 0.8994 | 0.7179 | 0.6296 | 0.6788 | 0.4991 | 0.4698 | 0.3497 | 0.4873 | 0.4568 | 0.7062 | 0.6814 | 0.5192 | 0.3687 | 0.6475 | Array Heatmap signal (histone peptide microarray) [21]: 0.6914; Array Heatmap signal (histone peptide microarray) [22]: 0.6271; Array Heatmap signal (histone peptide microarray) [23]: 0.4392; Array Heatmap signal (histone peptide microarray) [24]: 0.5952; Array Heatmap signal (histone peptide microarray) [25]: 0.8067; Array Heatmap signal (histone peptide microarray) [26]: 0.5293; Array Heatmap signal (histone peptide microarray) [27]: 0.4776; Array Heatmap signal (histone peptide microarray) [28]: 0.4658; Array Heatmap signal (histone peptide microarray) [29]: 0.356; Array Heatmap signal (histone peptide microarray) [30]: 0.3453; Array Heatmap signal (histone peptide microarray) [31]: 0.5905
